Columns and labels:
[1] = system: blackgrass; assay: Test Example 5: herbicidal effect by foliage application, plastic box (Table 20, symbol J); format: in vivo, blackgrass (Alopecurus myosuroides); settings: evaluated three weeks after application
Procedure, shortened: (§1)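 Plants sown in sterilized diluvial soil and grown 14 days in a greenhouse at 25° C to 30° C, then sprayed on the foliage with the compound's emulsion diluted in water to a predetermined herbicide amount. Injury to weeds and crops scored three weeks after application on a visual rating scale.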

[2] = system: rice flat sedge; assay: Test Example 3: herbicidal effect by foliage application, Wagner pot (Table 18, symbol E); format: in vivo, rice flat sedge (Cyperus iria); settings: for herbicidal effect on rice flat sedge (E): 320 g/ha
Procedure, shortened: (§2)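 Plants were sown in alluvial soil held under 0.1–0.5 cm standing water and grown 14 days in a greenhouse at 25–30 °C. An emulsifiable formulation, water-diluted to the set dose, was then sprayed onto the foliage, and effects were scored three weeks later using previously defined criteria.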

[3] = system: redroot pigweed; assay: Test Example 5: herbicidal effect by foliage application, plastic box (Table 20, symbol N); format: in vivo, redroot pigweed (Amaranthus retroflexus); settings: evaluated three weeks after application
Procedure, shortened: as §1

[4] = system: barnyard grass; assay: Test Example 5: herbicidal effect by foliage application, plastic box (Table 20, symbol H); format: in vivo, barnyard grass (Echinochloa crus-galli); settings: evaluated three weeks after application
Procedure, shortened: as §1

[5] = system: wild oat; assay: Test Example 5: herbicidal effect by foliage application, plastic box (Table 20, symbol I); format: in vivo, wild oat (Avena fatua); settings: evaluated three weeks after application
Procedure, shortened: as §1

[6] = system: lambsquarters; assay: Test Example 5: herbicidal effect by foliage application, plastic box (Table 20, symbol O); format: in vivo, lambsquarters (Chenopodium album); settings: evaluated three weeks after application
Procedure, shortened: as §1

[7] = system: Japanese bulrush; assay: Test Example 1: herbicidal activity, application before weed generation under submerged conditions (Table 16, symbol B); format: in vivo, Japanese bulrush (Schoenoplectus juncoides); settings: for Herbicidal effect, B: Japanese bulrush: amount of applied herbicide 320 g/ha
Procedure, shortened: (§3)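 Emulsion formulation, water-diluted to set dose, was put onto the flooded surface (4 cm depth, alluvial soil) the same day weeds were sown and 2.5-leaf rice transplanted. After 3 weeks at 25-30 °C under glass, each species was rated 0 (≤5% kill) to 5 (≥90% kill).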

[8] = system: barnyard grass; assay: Test Example 3: herbicidal effect by foliage application, Wagner pot (Table 18, symbol H); format: in vivo, barnyard grass (Echinochloa crus-galli); settings: for herbicidal effect on barnyard grass (H): 320 g/ha
Procedure, shortened: as §2

[9] = system: Italian ryegrass; assay: Test Example 5: herbicidal effect by foliage application, plastic box (Table 20, symbol K); format: in vivo, Italian ryegrass (Lolium multiflorum); settings: evaluated three weeks after application
Procedure, shortened: as §1

[10] = system: chickweed; assay: Test Example 5: herbicidal effect by foliage application, plastic box (Table 20, symbol P); format: in vivo, common chickweed (Stellaria media); settings: evaluated three weeks after application
Procedure, shortened: as §1

[11] = system: Chinese sprangletop; assay: Test Example 3: herbicidal effect by foliage application, Wagner pot (Table 18, symbol D); format: in vivo, chinese sprangletop (Leptochloa chinensis); settings: for herbicidal effect on Chinese sprangletop (D): 320 g/ha
Procedure, shortened: as §2

[12] = system: southern crabgrass; assay: Test Example 5: herbicidal effect by foliage application, plastic box (Table 20, symbol F); format: in vivo, southern crabgrass (Digitaria ciliaris); settings: evaluated three weeks after application
Procedure, shortened: as §1

[13] = system: oval-leafed pondweed; assay: Test Example 1: herbicidal activity, application before weed generation under submerged conditions (Table 16, symbol C); format: in vivo, oval-leafed pondweed (Monochoria vaginalis); settings: for Herbicidal effect, C: oval-leafed pondweed: amount of applied herbicide 320 g/ha
Procedure, shortened: as §3

[14] = system: persian speedwell; assay: Test Example 5: herbicidal effect by foliage application, plastic box (Table 20, symbol R); format: in vivo, Persian speedwell (Veronica persica); settings: evaluated three weeks after application
Procedure, shortened: as §1

[15] = system: windgrass; assay: Test Example 5: herbicidal effect by foliage application, plastic box (Table 20, symbol L); format: in vivo, windgrass (Apera spica-venti); settings: foliage application, AAH 320 g/ha, evaluated three weeks after application
Procedure, shortened: as §1

[16] = system: velvetleaf; assay: Test Example 5: herbicidal effect by foliage application, plastic box (Table 20, symbol M); format: in vivo, velvetleaf (Abutilon theophrasti); settings: evaluated three weeks after application
Procedure, shortened: as §1

[17] = system: green foxtail; assay: Test Example 5: herbicidal effect by foliage application, plastic box (Table 20, symbol G); format: in vivo, green foxtail (Setaria viridis); settings: evaluated three weeks after application
Procedure, shortened: as §1

[18] = system: late watergrass; assay: Test Example 1: herbicidal activity, application before weed generation under submerged conditions (Table 16, symbol A); format: in vivo, late watergrass (Echinochloa oryzicola); settings: for Herbicidal effect, A: late watergrass: amount of applied herbicide 320 g/ha
Procedure, shortened: as §3

[19] = foliage application, AAH 320 g/ha
[20] = amount of applied herbicide 320 g/ha
[21] = 320 g/ha, foliage application after 14-day growth
[22] = amount of applied herbicide 320 g/ha, foliage application after 14-day growth

Cc1nn(C)c(=O)c(-c2c(-c3ccc(OC(F)F)cc3)sc3ccc(F)cc23)c1OCC(F)(F)F [2-302]
J: blackgrass, herbicidal effect (criteria 0-5) [1, 19]: 0 (Herbicidal rate of 5% or less (almost no effect))
herbicidal effect on E: rice flat sedge [2, 20]: 3 (Herbicidal rate of 40% or more and less than 70%)
N: redroot pigweed, herbicidal effect (criteria 0-5) [3, 19]: 3 (Herbicidal rate of 40% or more and less than 70%)
H: barnyard grass, herbicidal effect (criteria 0-5) [4, 19]: 0 (Herbicidal rate of 5% or less (almost no effect))
I: wild oat, herbicidal effect (criteria 0-5) [5, 19]: 0 (Herbicidal rate of 5% or less (almost no effect))
O: lambsquarters, herbicidal effect (criteria 0-5) [6, 19]: 1 (Herbicidal rate of 5% or more and less than 20%)
Herbicidal effect on B: Japanese bulrush (grade 0-5) ([7]; 320 g/ha applied herbicide): 0 (Herbicidal rate of 5% or less (almost no effect))
herbicidal effect on H: barnyard grass [8, 20]: 3 (Herbicidal rate of 40% or more and less than 70%)
K: Italian ryegrass, herbicidal effect (criteria 0-5) [9, 19]: 0 (Herbicidal rate of 5% or less (almost no effect))
P: chickweed, herbicidal effect (criteria 0-5) [10, 19]: 4 (Herbicidal rate of 70% or more and less than 90%)
herbicidal effect on D: Chinese sprangletop [11, 20]: 0 (Herbicidal rate of 5% or less (almost no effect))
F: southern crabgrass, herbicidal effect (criteria 0-5) [12, 19]: 0 (Herbicidal rate of 5% or less (almost no effect))
Herbicidal effect on C: oval-leafed pondweed (grade 0-5) ([13]; 320 g/ha applied herbicide): 0 (Herbicidal rate of 5% or less (almost no effect))
R: persian speedwell, herbicidal effect (criteria 0-5) [14, 19]: 1 (Herbicidal rate of 5% or more and less than 20%)
L: windgrass, herbicidal effect (criteria 0-5) [15]: 0 (Herbicidal rate of 5% or less (almost no effect))
M: velvetleaf, herbicidal effect (criteria 0-5) [16, 19]: 0 (Herbicidal rate of 5% or less (almost no effect))
G: green foxtail, herbicidal effect (criteria 0-5) [17, 19]: 0 (Herbicidal rate of 5% or less (almost no effect))
Herbicidal effect on A: late watergrass (grade 0-5) ([18]; 320 g/ha applied herbicide): 3 (Herbicidal rate of 40% or more and less than 70%)

Cc1nn(C)c(=O)c(-c2c(-c3ccc(C#N)cc3)sc3c(Cl)cccc23)c1O [4-031]
herbicidal effect on J: blackgrass (evaluation grade 0-5) [1, 21]: 0 (Herbicidal rate of 5% or less (almost no effect))
herbicidal effect on rice flat sedge (E) [2]: 5 (Herbicidal rate of 90% or more (almost completely withered))
herbicidal effect on N: redroot pigweed (evaluation grade 0-5) [3, 21]: 5 (Herbicidal rate of 90% or more (almost completely withered))
herbicidal effect on H: barnyard grass (evaluation grade 0-5) [4, 21]: 0 (Herbicidal rate of 5% or less (almost no effect))
herbicidal effect on I: wild oat (evaluation grade 0-5) [5, 21]: 0 (Herbicidal rate of 5% or less (almost no effect))
herbicidal effect on O: lambsquarters (evaluation grade 0-5) [6, 21]: 4 (Herbicidal rate of 70% or more and less than 90%)
Herbicidal effect, B: Japanese bulrush [7]: 0 (Herbicidal rate of 5% or less (almost no effect))
herbicidal effect on barnyard grass (H) [8]: 3 (Herbicidal rate of 40% or more and less than 70%)
herbicidal effect on K: Italian ryegrass (evaluation grade 0-5) [9, 21]: 3 (Herbicidal rate of 40% or more and less than 70%)
herbicidal effect on P: chickweed (evaluation grade 0-5) [10, 21]: 5 (Herbicidal rate of 90% or more (almost completely withered))
herbicidal effect on Chinese sprangletop (D) [11]: 3 (Herbicidal rate of 40% or more and less than 70%)
herbicidal effect on F: southern crabgrass (evaluation grade 0-5) [12, 21]: 0 (Herbicidal rate of 5% or less (almost no effect))
Herbicidal effect, C: oval-leafed pondweed [13]: 0 (Herbicidal rate of 5% or less (almost no effect))
herbicidal effect on R: persian speedwell (evaluation grade 0-5) [14, 21]: 0 (Herbicidal rate of 5% or less (almost no effect))
herbicidal effect on M: velvetleaf (evaluation grade 0-5) [16, 21]: 3 (Herbicidal rate of 40% or more and less than 70%)
herbicidal effect on G: green foxtail (evaluation grade 0-5) [17, 21]: 2 (Herbicidal rate of 20% or more and less than 40%)
Herbicidal effect, A: late watergrass [18]: 2 (Herbicidal rate of 20% or more and less than 40%)

CCCC(=O)Oc1c(C)nn(C)c(=O)c1-c1c(-c2ccc(OC)c(OC)c2)sc2cc(F)c(F)cc12 [5-034]
Herbicidal effect by foliage application, J: blackgrass [1, 22]: 0 (Herbicidal rate of 5% or less (almost no effect))
herbicidal effect on rice flat sedge (E) [2]: 0 (Herbicidal rate of 5% or less (almost no effect))
Herbicidal effect by foliage application, N: redroot pigweed [3, 22]: 3 (Herbicidal rate of 40% or more and less than 70%)
Herbicidal effect by foliage application, H: barnyard grass [4, 22]: 0 (Herbicidal rate of 5% or less (almost no effect))
Herbicidal effect by foliage application, I: wild oat [5, 22]: 0 (Herbicidal rate of 5% or less (almost no effect))
Herbicidal effect by foliage application, O: lambsquarters [6, 22]: 4 (Herbicidal rate of 70% or more and less than 90%)
Herbicidal effect, B: Japanese bulrush [7]: 0 (Herbicidal rate of 5% or less (almost no effect))
herbicidal effect on barnyard grass (H) [8]: 4 (Herbicidal rate of 70% or more and less than 90%)
Herbicidal effect by foliage application, K: Italian ryegrass [9, 22]: 0 (Herbicidal rate of 5% or less (almost no effect))
Herbicidal effect by foliage application, P: chickweed [10, 22]: 5 (Herbicidal rate of 90% or more (almost completely withered))
herbicidal effect on Chinese sprangletop (D) [11]: 1 (Herbicidal rate of 5% or more and less than 20%)
Herbicidal effect by foliage application, F: southern crabgrass [12, 22]: 0 (Herbicidal rate of 5% or less (almost no effect))
Herbicidal effect, C: oval-leafed pondweed [13]: 0 (Herbicidal rate of 5% or less (almost no effect))
Herbicidal effect by foliage application, R: persian speedwell [14, 22]: 4 (Herbicidal rate of 70% or more and less than 90%)
Herbicidal effect by foliage application, M: velvetleaf [16, 22]: 3 (Herbicidal rate of 40% or more and less than 70%)
Herbicidal effect by foliage application, G: green foxtail [17, 22]: 3 (Herbicidal rate of 40% or more and less than 70%)
Herbicidal effect, A: late watergrass [18]: 3 (Herbicidal rate of 40% or more and less than 70%)

Reference: patent US20230085307A1, “PYRIDAZINONE COMPOUND AND HERBICIDE” (NISSAN CHEMICAL CORPORATION, priority 2019, published 2023)
